The target in assay [1] is T1, human Cereblon WT GST-tagged protein (Homo sapiens, UniProt Q96SW2).
T1 construct: purchased CISBIO 64BDCRBNPEH
As to the kind of experiment: CRBN-binding affinity, HTRF (CEREBLON BINDING kit). The settings on record: for inhibition at 0.5 µM: read-out: Inhibition Rate at 0.5 µM (%); for inhibition at 2 µM: read-out: Inhibition Rate at 2 µM (%). The text has this:
The CEREBLON BINDING kits (specification: 10,000 tests; product number: Catalog # 64BDCRBNPEH; CISBIO company) was used to determine the CRBN binding ability of the compounds to be tested through a HTRF method (homogeneous time-resolved fluorescence). The specific methods are as follows: • 1. […] Specifically, diluent #9 (1X) solution was used as the diluent, and multiple concentration gradients were set. […] Into the 96-well plate, the diluted test compounds and corresponding detection reagents were added, resulting in final test compound concentrations of 2 µM and 0.5 µM, respectively. […] Then, 2.5 µL of human Cereblon WT GST-tagged protein solution was added to each well. Finally, 5 µL of the thoroughly mixed Thalidomide-Re reagent and GST Eu antibody working solution were added to each of the aforementioned wells. […] The blank control wells were sequentially added with 2.5 µL of diluent #9 (1X) solution, 2.5 µL of PROTAC binding buffer, and 5 µL of thoroughly mixed Thalidomide-Re reagent and GST Eu antibody working solution. • 4.

For a further assay, the system named is MV-4-11. Briefly: Tumor cell proliferation inhibition (CellTiter-Meiluncell Luminescent Cell Viability Assay). The assay is classed as cell-based. The settings on record: Homo sapiens, 96 hours; for inhibition at 0.01 µM: MV4-11, 10 nM, read-out: Inhibition Rate at 10 nM (%); for inhibition at 0.5 µM: MV4-11, 500 nM, read-out: Inhibition Rate at 500 nM (%). How it is done:
The tumor cells used herein were cultured in a cell culture medium listed in table 3 at 37°C in an incubator with 5% CO2. Prior to experimentation, all cell lines used were correctly identified by STR profiling, and tested negative for mycoplasma contamination using a mycoplasma detection kit through routine screenings. Table 3. Tumor cells and cell culture medium used in the present disclosure
The IC50 values of the compounds of the present disclosure (including the compounds in Table 1, Table 2, and Examples) were determined using the CellTiter-Meiluncell Luminescent Cell Viability Assay Kit from Dalian Meilun Biotech Co., Ltd. The detailed procedure is as follows: Tumor cells were seeded in 96-well cell culture plates at the densities specified in Table 4. On the following day, the test compounds of the present disclosure were subjected to serial dilution. […] Subsequently, 0.5 µL of the test compound dilution was transferred into the 96-well plate containing the cells, with each well containing 100 µL of cell culture medium. […] Into the 96-well plate, the diluted test compounds and corresponding detection reagents were added, resulting in final test compound concentrations of 500 nM and 10 nM, respectively. The experimental procedure is described below using the diluted 2 µM test compound as an example.
0.5 µL of the aforementioned diluted compound of the present disclosure (including the compounds in Table 1, Table 2, and Examples) was added to the seeded cells in 100 µL of medium, yielding a final test compound concentration of 10 nM. After the cells were treated with the compounds of the present disclosure for a specified period, the cell viability assay reagent was added to the culture medium according to the kit's instructions to determine cell viability. […] All controls were treated using the same procedure as the compounds of the present disclosure. […] Seeding protocol and treatment time for tumor cells

The structures appear in SMILES notation. Where two headings read alike, the source gives them in different places.

T1 sequence (Q96SW2 whole entry): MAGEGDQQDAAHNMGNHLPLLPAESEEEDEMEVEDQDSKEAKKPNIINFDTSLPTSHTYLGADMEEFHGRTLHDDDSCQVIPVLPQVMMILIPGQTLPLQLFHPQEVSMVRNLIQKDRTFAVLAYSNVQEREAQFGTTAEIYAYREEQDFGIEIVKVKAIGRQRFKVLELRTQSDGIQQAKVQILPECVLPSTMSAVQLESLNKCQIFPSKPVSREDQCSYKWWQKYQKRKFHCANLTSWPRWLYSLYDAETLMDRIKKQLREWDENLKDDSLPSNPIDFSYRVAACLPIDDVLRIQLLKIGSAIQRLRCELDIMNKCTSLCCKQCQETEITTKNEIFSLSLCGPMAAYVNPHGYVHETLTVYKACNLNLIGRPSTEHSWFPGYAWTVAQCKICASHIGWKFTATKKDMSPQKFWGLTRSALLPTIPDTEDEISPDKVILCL

The term inhibition denotes the drop in the measured response relative to a control, in per cent. As for `O=C1CCC(N2Cc3cc(CN4CCN(c5ccc6c(c5)nc(NC(=O)c5cccc(C(F)(F)F)c5)n6[C@H]5CC[C@@H](CO)CC5)CC4)ccc3C2=S)C(=O)N1` (relative stereo) [GT-05293, N-(5-(4-((2-(2,6-dioxopiperidin-3-yl)-1-thioxoisoindolin-5-yl)methyl)piperazin-1-yl)-1-((1s,4s)-4-(hydroxymethyl)cyclohexyl)-1H-benzo[d]imidazol-2-yl)-3-(trifluoromethyl)benzamide], in assay [1], the inhibition at 0.5 µM was in the range of 40 to 53% and the inhibition at 2 µM was 60 to 80%. In addition, in the assay with MV-4-11 (Table I-6, IRAK4 inhibitors), the inhibition at 0.01 µM was in the range of 10 to 20% and the inhibition at 0.5 µM lay in the range of 60 to 70%.

As to `O=C1CCC(N2Cc3c(CN4CCC(n5cc(NC(=O)c6cnn7ccc(N8CCOCC8)nc67)c(C(F)F)n5)CC4)cccc3C2=S)C(=O)N1` (stereo not shown) [GT-05287, N-(3-(difluoromethyl)-1-(1-((2-(2,6-dioxopiperidin-3-yl)-1-thioxoisoindolin-4-yl)methyl)piperidin-4-yl)-1H-pyrazol-4-yl)-5-morpholinopyrazolo[1,5-a]pyrimidine-3-carboxamide], in assay [1], the inhibition at 0.5 µM was in the range of 53 to 60% and the inhibition at 2 µM was in the range of 80 to 100%. Besides, in the assay on MV-4-11 (Table I-6, IRAK4 inhibitors), the inhibition at 0.01 µM lay in the range of 10 to 20% and the inhibition at 0.5 µM lay in the range of 70 to 80%.

Regarding `O=C1CCC(N2Cc3c(CN4CCC(n5cc(NC(=O)c6cnn7ccc(N8C[C@H]9C[C@@H]8CO9)nc67)c(C(F)F)n5)CC4)cccc3C2=S)C(=O)N1` (stereo partly drawn) [GT-05288, 5-((1R,4R)-2-oxa-5-azabicyclo[2.2.1]heptan-5-yl)-N-(3-(difluoromethyl)-1-(1-((2-(2,6-dioxopiperidin-3-yl)-1-thioxoisoindolin-4-yl)methyl)piperidin-4-yl)-1H-pyrazol-4-yl)pyrazolo[1,5-a]pyrimidine-3-carboxamide], in assay [1], the inhibition at 0.5 µM lay within 53 to 60% and the inhibition at 2 µM fell in the range of 80 to 100%. Further, in the assay with MV-4-11 (Table I-6, IRAK4 inhibitors), the inhibition at 0.01 µM was 0 to 5% and the inhibition at 0.5 µM lay within 40 to 50%.

For the compound `Cc1cc(-c2nc(C(=O)Nc3cc4oc(N5CCN(Cc6cccc7c6CN(C6CCC(=O)NC6=O)C7=S)CC5)nc4nc3N3CC[C@@H](O)C3)co2)ccn1` (stereo partly drawn) [GT-05289, N-(2-(4-((2-(2,6-dioxopiperidin-3-yl)-1-thioxoisoindolin-4-yl)methyl)piperazin-1-yl)-5-((R)-3-hydroxypyrrolidin-1-yl)oxazolo[4,5-b]pyridin-6-yl)-2-(2-methylpyridin-4-yl)oxazole-4-carboxamide], in assay [1], the inhibition at 0.5 µM was 40 to 53% and the inhibition at 2 µM lay within 60 to 80%. Moreover, in the assay with MV-4-11 (Table I-6, IRAK4 inhibitors), the inhibition at 0.01 µM fell in the range of 5 to 10% and the inhibition at 0.5 µM lay within 70 to 80%.

Turning to `COc1cc2nn(C3CCN(Cc4ccc5c(c4)CN(C4CCC(=O)NC4=O)C5=S)CC3)cc2cc1NC(=O)c1cccc(C(F)(F)F)n1` (stereo not shown) [GT-05296, N-(2-(1-((2-(2,6-dioxopiperidin-3-yl)-1-thioxoisoindolin-5-yl)methyl)piperidin-4-yl)-6-methoxy-2H-indazol-5-yl)-6-(trifluoromethyl)picolinamide], in assay [1], the inhibition at 0.5 µM fell in the range of 60 to 80% and the inhibition at 2 µM lay in the range of 80 to 100%. Also, in the assay on MV-4-11 (Table I-6, IRAK4 inhibitors), the inhibition at 0.01 µM is 10 to 20% and the inhibition at 0.5 µM lay in the range of 50 to 60%.

On to `Cc1cc(-c2nc(C(=O)Nc3cc4oc(N5CCN(Cc6ccc7c(c6)CN(C6CCC(=O)NC6=O)C7=S)CC5)nc4nc3N3CC[C@@H](O)C3)co2)ccn1` (stereo partly drawn) [GT-05322, N-(2-(4-((2-(2,6-dioxopiperidin-3-yl)-1-thioxoisoindolin-5-yl)methyl)piperazin-1-yl)-5-((R)-3-hydroxypyrrolidin-1-yl)oxazolo[4,5-b]pyridin-6-yl)-2-(2-methylpyridin-4-yl)oxazole-4-carboxamide], for which, in assay [1], the inhibition at 0.5 µM is 60 to 80% and the inhibition at 2 µM fell in the range of 80 to 100%. In addition, in the assay on MV-4-11 (Table I-6, IRAK4 inhibitors), the inhibition at 0.01 µM was 10 to 20% and the inhibition at 0.5 µM fell in the range of 80 to 100%.

In the case of `Cn1ncc(-c2nc(NC3CCN(Cc4ccc5c(c4)C(=S)N(C4CCC(=O)NC4=O)C5)CC3)ncc2Cl)c1CC1CC1` (stereo not shown) [GT-08751, 3-(6-((4-((5-chloro-4-(5-(cyclopropylmethyl)-1-methyl-1H-pyrazol-4-yl)pyrimidin-2-yl)amino)piperidin-1-yl)methyl)-1-thioxoisoindolin-2-yl)piperidine-2,6-dione], in assay [1], the inhibition at 0.5 µM lay within 40 to 53% and the inhibition at 2 µM was in the range of 80 to 100%. Moreover, in the assay with MV-4-11 (Table I-7, CDK9 inhibitors), the inhibition at 0.01 µM is 10 to 20% and the inhibition at 0.5 µM lay within 60 to 70%.

As to `COc1cc(N2CCC(N(C)Cc3ccc4c(c3)CN(C3CCC(=O)NC3=O)C4=S)CC2)c(C)cc1Nc1ncc(Br)c(Nc2ccc3nccnc3c2P(C)(C)=O)n1` (stereo not shown) [GT-08754, 3-(5-(((1-(4-((5-bromo-4-((5-(dimethylphosphoryl)quinoxalin-6-yl)amino)pyrimidin-2-yl)amino)-5-methoxy-2-methylphenyl)piperidin-4-yl)(methyl)amino)methyl)-1-thioxoisoindolin-2-yl)piperidine-2,6-dione], in assay [1], the inhibition at 0.5 µM is 80 to 100% and the inhibition at 2 µM lay in the range of 80 to 100%. In addition, in the assay with MV-4-11 (Table I-3, EGFR inhibitors), the inhibition at 0.01 µM is 10 to 20% and the inhibition at 0.5 µM is 70 to 80%.

Consider `COc1cc(N2CCC(N3CCN(Cc4ccc5c(c4)CN(C4CCC(=O)NC4=O)C5=S)CC3)CC2)c(C)cc1Nc1ncc(Br)c(Nc2ccc3nccnc3c2P(C)(C)=O)n1` (stereo not shown) [GT-08755, 3-(5-((4-(1-(4-((5-bromo-4-((5-(dimethylphosphoryl)quinoxalin-6-yl)amino)pyrimidin-2-yl)amino)-5-methoxy-2-methylphenyl)piperidin-4-yl)piperazin-1-yl)methyl)-1-thioxoisoindolin-2-yl)piperidine-2,6-dione], for which, in assay [1], the inhibition at 0.5 µM was 80 to 100% and the inhibition at 2 µM lay within 80 to 100%. For the same compound, in the assay with MV-4-11 (Table I-3, EGFR inhibitors), the inhibition at 0.01 µM fell in the range of 20 to 30% and the inhibition at 0.5 µM lay in the range of 70 to 80%.

Regarding `COC1CCN(c2nccc(Nc3cc4c(cn3)c(N3CCN(Cc5ccc6c(c5)CN(C5CCC(=O)NC5=O)C6=S)CC3)nn4C(C)C)n2)CC1` (stereo not shown) [GT-08756, 3-(5-((4-(1-isopropyl-6-((2-(4-methoxypiperidin-1-yl)pyrimidin-4-yl)amino)-1H-pyrazolo[4,3-c]pyridin-3-yl)piperazin-1-yl)methyl)-1-thioxoisoindolin-2-yl)piperidine-2,6-dione], in assay [1], the inhibition at 0.5 µM lay within 30 to 40% and the inhibition at 2 µM was in the range of 80 to 100%. In the assay with MV-4-11 (Table I-3, EGFR inhibitors), the inhibition at 0.01 µM lay in the range of 5 to 10% and the inhibition at 0.5 µM lay within 40 to 50%.

Regarding `COc1cc(N2CCC(N(C)Cc3cccc4c3CN(C3CCC(=O)NC3=O)C4=S)CC2)c(C)cc1Nc1ncc(Br)c(Nc2ccc3nccnc3c2P(C)(C)=O)n1` (stereo not shown) [GT-08758, 3-(4-(((1-(4-((5-bromo-4-((5-(dimethylphosphoryl)quinoxalin-6-yl)amino)pyrimidin-2-yl)amino)-5-methoxy-2-methylphenyl)piperidin-4-yl)(methyl)amino)methyl)-1-thioxoisoindolin-2-yl)piperidine-2,6-dione], in assay [1], the inhibition at 0.5 µM is 53 to 60% and the inhibition at 2 µM lay in the range of 60 to 80%. In the assay on MV-4-11 (Table I-3, EGFR inhibitors), the inhibition at 0.01 µM fell in the range of 10 to 20% and the inhibition at 0.5 µM fell in the range of 60 to 70%.

Consider `Cc1cc(S(=O)(=O)N2CCN(Cc3cccc4c3CN(C3CCC(=O)NC3=O)C4=S)CC2)ccc1Nc1ncc(Br)c(Nc2cccc(F)c2C(N)=O)n1` (stereo not shown) [GT-08793, 2-((5-bromo-2-((4-((4-((2-(2,6-dioxopiperidin-3-yl)-1-thioxoisoindolin-4-yl)methyl)piperazin-1-yl)sulfonyl)-2-methylphenyl)amino)pyrimidin-4-yl)amino)-6-fluorobenzamide], for which, in the assay on MV-4-11 (Table I-13, CDK2 inhibitors), the inhibition at 0.01 µM was 30 to 40% and the inhibition at 0.5 µM was 60 to 70%.

(Values after patent EP4745138A1, “THIO-GLUTARIMIDO ISOINDOLINONE DERIVATIVE, BIFUNCTIONAL PROTEIN DEGRADER CONTAINING SAME, AND USES THEREOF” (Gluetacs Therapeutics (Shanghai) Co., Ltd., priority 2023, dated 2025).)
